{
  "source": "patent US20240009269A1",
  "about": "(priority 2020, published 2024)",
  "key": {"dhBMECs": {"system": "dhBMECs", "assay": "Cytotoxicity assay (EthD1/Hoechst live-cell imaging), dhBMECs", "assay_type": "cell-based, human", "conditions": "for exposure time maintaining high cell viability: phase diagrams of dhBMECs and HCNs, 98% viability", "protocol": "DhBMECs were seeded on polystyrene 96-well plate, coated with 25 μg mL^−1 fibronectin and 50 μg mL^−1 collagen IV, at 2×10^5 cells cm^−2 in BBB induction medium. On day 1, the cells were washed twice with BBB maintenance medium with gentle pipetting up-and-down to remove non-adherent cells and incubated in the medium overnight. HCN2 cells were seeded in the tissue culture-treated 96-well plate at 3×10^3 cell cm^−2 in HCN2 cell culture medium and cultured for two days at 37° C., 5% CO2, with the medium change on day 1 after the seeding. The cytotoxicity assay was performed on day 2 after seeding. Briefly, in the cytotoxicity assay, the cells were incubated with two dyes: a membrane-impermeable Ethidium homodimer-1 (EthD1, L3224, Thermo Fisher Scientific) to assess cell viability, and Hoechst 33342 nuclear stain (Cat. No. 62249, Thermo Fisher Scientific) and imaged on an epifluorescence microscope. In more detail, the cells were washed with BBB maintenance medium followed by incubation with 200 μL of 2 μg mL^−1 Hoechst 33342 and 10 μM EthD1 solution for 15-30 minutes at 37° C., 5% CO2. After the incubation, 100 μL of the solutions were replaced with Hoechst 33342 and EthD1 solutions containing melittin using a multichannel pipettor, resulting in final 0.75 μM, 5 μM, and 10 μM melittin concentrations. After the addition of treatment solutions, large 6×6 epifluorescence images were collected every ˜3.5 minutes per condition using a 20×objective and a Nikon Eclipse TiE microscope, equipped with 37° C. chamber, for 60-90 minutes. Out-of-focus portions of images were manually blacked out using ImageJ. Afterwards, the images were analyzed using a custom pipeline in image analysis software CellProfiler 3.1.8 to count Hoechst-positive objects (all cells) and EhtD1-positive objects (dead cells). The fraction of viable cells (F) was calculated using equation 2 below:\nwhere N(EthD1)i is the number of EthD1-positive objects at time i, N(EthD1)o is the number of EthD1-positive objects at time t=2 minutes (initial time of imaging), N(Hoechst)max is the maximum number of Hoechst-positive objects counted in an image over the imaging time-course. For dhBMECs, the experiments were repeated a total of five times with two independent iPSC differentiations. In the experiment, all media removal was done by gentle pipetting and not aspiration by vacuum. For HCN2 cells, the experiments were performed a total of three times on day 2 and day 3 after seeding."}, "[1]": {"system": "2D dhBMEC monolayers (ZO1)", "assay": "Immunocytochemistry of zona occludens-1 in 2D dhBMEC monolayers", "assay_type": "cell-based, human", "protocol": "Antibodies used in the study are described in Table 3. LabTek 8-chamber slides (Cat. No. 155411, Thermo Fisher Scientific) were coated with 25 μg mL^−1 fibronectin and 50 μg mL^−1 collagen IV overnight at 37° C. BC1 cell were seeded in BBB induction medium at 5×10^5 cells cm^−2. On day 1 after seeding, dhBMECs were washed twice with BBB maintenance medium and incubated in the medium overnight. On day 2, the cells were washed twice with BBB maintenance medium and treated with 1.5 μM, 5 μM, and 10 μM of melittin, diluted in the medium, for 2 minutes, 5 minutes, 10 minutes, or 90 minutes. The resulting melittin dosages, calculated as the product of melittin concentration and incubation time, were 3 μM·minutes, 25 μM·minutes, 100 μM minutes, and 450 μM·minutes. A negative control without melittin was included with every experiment. After the melittin incubation, the cells were washed twice with 1×PBS azide and fixed in 3.7% paraformaldehyde solution for 10 minutes or methanol for 15 minutes. The fixed cells were washed with 1×PBS azide and incubated in blocking solution (10% goat serum, 0.3% TritonX-100 in 1×PBS azide) at 4° C. for 1-2 days. The cells were incubated with primary antibodies for 2 hours at room temperature. […]"}},
  "data": [
    {"molecule": "CC[C@H](C)[C@H](NC(=O)CN)C(=O)NCC(=O)N[C@@H](C)C(=O)N[C@H](C(=O)N[C@@H](CC(C)C)C(=O)N[C@@H](CCCCN)C(=O)N[C@H](C(=O)N[C@@H](CC(C)C)C(=O)N[C@H](C(=O)N[C@H](C(=O)NCC(=O)N[C@@H](CC(C)C)C(=O)N1CCC[C@H]1C(=O)N[C@@H](C)C(=O)N[C@@H](CC(C)C)C(=O)N[C@H](C(=O)N[C@@H](CO)C(=O)N[C@@H](Cc1c[nH]c2ccccc12)C(=O)N[C@H](C(=O)N[C@@H](CCCCN)C(=O)N[C@@H](CCCNC(=N)N)C(=O)N[C@@H](CCCCN)C(=O)N[C@@H](CCCNC(=N)N)C(=O)N[C@@H](CCC(N)=O)C(=O)N[C@@H](CCC(N)=O)C(N)=O)[C@@H](C)CC)[C@@H](C)CC)[C@@H](C)O)[C@@H](C)O)C(C)C)C(C)C", "note": "[melittin]", "values": [
      {"measurement": "exposure time maintaining high cell viability", "setting": "dhBMECs; 0.75 μM melittin", "result": "≥ 20", "unit": "min"},
      {"measurement": "time for which viability is largely unaffected", "setting": "dhBMECs; 5 μM melittin", "result": "about 20 minutes"},
      {"measurement": "time at which the viability reached 50% (τ1/2)", "setting": "dhBMECs; 5 μM melittin, continuous exposure", "result": "~40", "unit": "min"},
      {"measurement": "exposure time maintaining high cell viability", "setting": "dhBMECs; 10 μM melittin", "result": "≤ 10", "unit": "min"},
      {"measurement": "decrease of viability", "setting": "dhBMECs; dose of 100 μM·minute", "result": "< 2", "unit": "%"},
      {"measurement": "monolayer integrity", "setting": "[1]; 450 μM·minute dose", "result": "significant cell detachment was observed"},
      {"measurement": "ZO1 protein expression compared to controls", "setting": "[1]; doses of 3-100 μM·minute", "result": "did not result in large changes"}
    ]}
  ]
}
